Source: publication PMC5607274, “An iterative compound screening contest method for identifying target protein inhibitors using the tyrosine-protein kinase Yes” (Scientific Reports, 2017)

Molecular target: T1, human recombinant Yes [a.a. 2–543 (end)] (Homo sapiens, UniProt P07947)
T1 construct: human recombinant Yes [a.a; 2–543 (end)]; purchased BPS Bioscience 40488
Experiment: ADP-Glo kinase assay, inhibition rates of Yes phosphorylation activity (first and second screening)
Type: biochemical
Conditions: first screening; mean of n = 4 wells; 10 μmol L−1 compound
In short: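 ADP-Glo luminescence measured inhibition of human recombinant Yes (a.a. 2–543) phosphorylation activity. In the first screen, each compound ran in 4 wells and inhibition rates were averaged. The second screen retested hits as compounds dissolved from fresh powder.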

T1 sequence (P07947 2-543): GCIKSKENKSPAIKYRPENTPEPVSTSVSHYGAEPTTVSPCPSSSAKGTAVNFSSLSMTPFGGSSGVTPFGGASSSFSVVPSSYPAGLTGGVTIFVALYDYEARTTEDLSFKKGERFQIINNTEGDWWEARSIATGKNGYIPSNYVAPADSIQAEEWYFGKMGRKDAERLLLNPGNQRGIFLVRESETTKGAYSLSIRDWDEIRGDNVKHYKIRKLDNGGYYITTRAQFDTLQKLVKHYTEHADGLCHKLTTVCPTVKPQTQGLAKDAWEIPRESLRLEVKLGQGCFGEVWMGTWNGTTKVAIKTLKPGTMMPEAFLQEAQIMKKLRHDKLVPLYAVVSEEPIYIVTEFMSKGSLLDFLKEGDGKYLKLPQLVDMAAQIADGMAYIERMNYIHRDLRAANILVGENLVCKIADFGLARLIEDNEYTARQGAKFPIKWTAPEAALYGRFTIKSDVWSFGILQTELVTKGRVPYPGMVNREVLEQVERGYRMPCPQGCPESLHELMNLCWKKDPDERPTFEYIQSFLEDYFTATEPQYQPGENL

Structure (SMILES) | First screening IR (inhibition rate)
O=C(CSc1nnc(-c2ccccc2F)n1CCc1ccccc1)c1ccc[nH]1 [Compound Z16427126] | -9%
Cl.O=C(NCCC1CCCNC1)c1c(F)cccc1Br (stereo not shown) [Compound Z1457134316] | -2%
CC(NCc1ccc(CN2CCN(C)CC2)cc1)c1cccc(CO)c1 (stereo not shown) [Compound Z1532484795] | -4%
CCN(CC)S(=O)(=O)c1ccc(S(=O)(=O)N(C)C(C)C)cc1 [Compound Z45539789] | 11%
CCn1c(-c2ccncc2)nc2c1c(=O)[nH]c(=O)n2Cc1ccccc1 [Compound Z50138431] | -3%
O=C(COc1ccccc1)NCc1nc2ccccc2[nH]1 [Compound Z26782031] | -12%
CCOC(=O)c1c(-c2ccc(C)cc2)csc1Nc1nc2ccccc2nc1N1CCN(CC)CC1 [Compound Z56854384] | -3%
O=c1cc(-c2ccccc2)c2cc(Cl)c(OCCO)cc2o1 [Compound Z335913836] | 15%
O=S1(=O)CC=C(S(=O)(=O)Cl)C1 [Compound Z57163400] | 4%
Cl.Fc1ccccc1-c1cc(-c2ccccc2)nc2ccc(Cl)cc12 [Compound Z48955825] | -1%
O=C(CCc1cnn(-c2ccccc2)c1)Nc1n[nH]c(-c2ccccn2)n1 [Compound Z653343234] | -14%
Oc1cncc(/C=C/c2nc(-c3ccc(Oc4ccc(F)cc4)nc3)no2)c1 [Compound Z1642148338] | -13%
C#CC(COC)NS(=O)(=O)CCCS(C)(=O)=O (stereo not shown) [Compound Z1787994415] | 4%
Cl.Fc1ccc(-c2cc(-c3ccccc3)c3ccccc3n2)cc1 [Compound Z48951014] | 18%
O=C(CN(Cc1ccccc1)S(=O)(=O)c1ccc(Cl)cc1)N1CCN(c2ccccn2)CC1 [Compound Z26735553] | 16%
O=S1(=O)CCC(S(=O)(=O)Cl)C1 (stereo not shown) [Compound Z57163399] | -7%
O=C(CN1CCSc2ccccc21)N1CCN(S(=O)(=O)c2ccc(Cl)s2)CC1 [Compound Z105335628] | -5%
CCOC(=O)COc1ccc(C2(C)NC(=O)c3cc(Cl)ccc3N2)cc1 (stereo not shown) [Compound Z839958866] | 5%
Cc1nccn1-c1cncc(NCc2cc(-c3ccccc3)on2)n1 [Compound Z1798299891] | 19%

Structure (SMILES) | First screening IR (inhibition rate)
COCCNc1ncnc2c1c(-c1ccccc1)cn2-c1ccc(OC)cc1 [Compound Z57455912] | 16%
CCC(C)CS(=O)(=O)N(C)CC (stereo not shown) [Compound Z1193464552] | -7%
Cc1[nH]c(=O)c(C#N)c(C)c1CCc1nc(-c2cc(Br)cs2)no1 [Compound Z1170101191] | 10%
Cc1cccc(C)c1NC(=O)CN1CCN(C(C(=O)N2CCCCC2)c2ccccc2)CC1 (stereo not shown) [Compound Z106611352] | -11%
Nc1ccnc(-c2cncs2)n1 [Compound Z1407063064] | -14%
Cc1cc(N2CCN(C(=O)c3cc(Br)cn3C(C)C)CC2)n[nH]1 [Compound Z1784719533] | -5%
O=S(=O)(Nc1cnc2ccccc2c1)c1ccc(Cl)c(Cl)c1 [Compound Z246801514] | 3%
CCN(CCC#N)S(=O)(=O)c1cc(C)cc(S(C)(=O)=O)c1C [Compound Z1145197816] | -2%
CN(C)S(=O)(=O)c1ccc(S(N)(=O)=O)cc1 [Compound Z45415603] | 11%
O=c1c2cccc3c2c(nn1-c1ccccc1)-c1ccccc1-3 [Compound Z57229152] | 18%
O=C(c1cccnc1N1CCCC1)N1CCN(C(=O)C2COc3ccccc3O2)CC1 (stereo not shown) [Compound Z88468962] | -8%
COc1cc(Cl)c(C)cc1NC(=O)CN(Cc1ccco1)S(=O)(=O)c1cccc(Cl)c1 [Compound Z25969255] | 38%
O=[N+]([O-])c1cc2c(c(CN(Cc3ccccc3)S(=O)(=O)c3cccc(C(F)(F)F)c3)c1)OCOC2 [Compound Z25980301] | 7%
CCOc1cc(N2CCOCC2)c(OCC)cc1NC(=O)CSc1nnc(-c2ccc3c(c2)OCO3)n1-c1ccccc1 [Compound Z16253844] | -3%
CCNC(=O)CN(CC)S(=O)(=O)c1cnn(-c2ccc(F)cc2)c1C [Compound Z1403244361] | 2%
COc1ccc(Nc2nc(NCCN3CCOCC3)nc(Nc3ccc(OC)cc3)n2)cc1 [Compound Z57049315] | 6%
C=CCN(CC(=O)Nc1cccc(C#N)c1)S(=O)(=O)c1ccccc1F [Compound Z26091205] | 3%
CCN(CC)S(=O)(=O)c1ccc(S(=O)(=O)N(C)C)cc1 [Compound Z45516173] | 3%

Now from value to compound:

First screening IR (inhibition rate) | Structure (SMILES)
1% | Cc1nn(-c2ccccc2)c2sc(C(=O)NCc3ccccn3)cc12 [Compound Z30166588]
10% | O=C1CN(C(=O)c2nn(-c3ccc(F)cc3)c3c2CCCCC3)CCN1 [Compound Z254636716]
-18% | NC(=O)c1cc(NC(=O)c2cc(-c3ccccc3Cl)n[nH]2)ccc1F [Compound Z368298320]
2% | CCC(NC(=O)c1cc2c(cc1Cl)N1CCCCCC1=NS2(=O)=O)c1ccc(C)cc1 (stereo not shown) [Compound Z28877665]
9% | Cc1ccc(S(=O)(=O)N(C)C2(C)CCS(=O)(=O)C2)cc1C (stereo not shown) [Compound Z150918412]
17% | O=C(CCCSc1nc2ccccc2[nH]1)Nc1ccc(-c2nc3ccccc3[nH]2)cc1 [Compound Z30270226]
38% | CCN1CCN(c2nc3ccccc3nc2C(C#N)C(=O)NCCc2ccc(OC)c(OC)c2)CC1 (stereo not shown) [Compound Z56854281]
9% | CCN(CC)c1ccc([N+](=O)[O-])cc1C(=O)Nc1ccc2nc(N3CCOCC3)sc2c1 [Compound Z70970124]
-8% | Cn1ccc2c(NC(=O)NCc3ccnc(N4CCCC4)c3)cccc21 [Compound Z1040576806]
5% | CCN1C/C(=C/c2ccc(F)cc2)c2nc3ccccc3c(C(=O)O)c2C1 [Compound Z46146538]
-3% | Cn1c(=O)c2cc(C(=O)Nc3ccc(F)c(Cl)c3)sc2n(C)c1=O [Compound Z818806818]
-2% | Cc1nc(NC(=O)c2cccc(NC(N)=O)c2)sc1SCC#N [Compound Z1000171966]
6% | COc1ccc(C(=O)Nc2n[nH]c(-c3ccc(F)cc3)n2)cc1 [Compound Z108548640]
15% | O=C(NCC(Cc1ccccc1)C(=O)O)c1ccc(-n2ccnc2)cc1 (stereo not shown) [Compound Z1603513622]
-5% | CCCn1c(=O)[nH]c(=O)c2c(C(=O)Nc3ccccc3N3CCOCC3)cc(C3CC3)nc21 [Compound Z337770612]
17% | Cc1nn(C2CCS(=O)(=O)C2)c2nc(C3CC3)cc(C(=O)Nc3ccc(C(N)=O)cc3)c12 (stereo not shown) [Compound Z60779201]
6% | CC1CN(C(C)(C)CNC(=O)c2ccc(NS(=O)(=O)c3ccccc3)cc2)CC(C)O1 (stereo not shown) [Compound Z226329302]

First screening IR (inhibition rate) | Structure (SMILES)
11% | COc1cccc(/C=C2\CCCc3c2nc2ccccc2c3C(=O)O)c1 [Compound Z46035772]
5% | Cc1cc(NC(=O)c2ccn(-c3ccccc3)n2)n(CCC#N)n1 [Compound Z826713438]
-9% | NC(=O)C1CCN(C(=O)CNc2cc(Cl)ccc2Sc2ccc(F)cc2)CC1 [Compound Z140497072]
-9% | CC(Oc1cccc(Cl)c1Cl)C(=O)Nc1ccc2nc[nH]c(=O)c2c1 (stereo not shown) [Compound Z927306002]
6% | COc1cc(NC(=O)COC(=O)c2cc(-c3cccs3)nc3onc(C)c23)cc(OC)c1 [Compound Z218834328]
-6% | Cc1nc(-c2cccc(NC(=O)CC(NC(N)=O)c3ccc(Cl)cc3)c2)cs1 (stereo not shown) [Compound Z52058293]
18% | CCOc1ccc(C(=O)Nc2ccc3c(c2)C(=O)NC3)cc1OCC [Compound Z943285536]
54% | Cc1ccc(-n2c(SCC(=O)Nc3ccc(N4CCOCC4)cc3)nnc2-c2cccnc2)c(C)c1 [Compound Z18666705]
-16% | CCn1ncc2c(C(=O)N(C)Cc3ccccc3)cc(-c3ccccc3)nc21 [Compound Z223859126]
-3% | CC(=O)c1cccc(NC(=O)c2sc(Nc3ccc(C)cc3)c(C(=O)NCCN3CCOCC3)c2N)c1 [Compound Z56914008]
2% | CC(C)n1ncc2c(C(=O)O)cc(-c3ccc4c(c3)OCCO4)nc21 [Compound Z56643642]
-12% | O=C(CCN1CCCC1=O)Nc1ccc(Oc2ccc(F)cc2)cn1 [Compound Z1129155203]
2% | Cc1ccc(NC2CCN(Cc3ccncc3)CC2)c(CN(C)C)c1 [Compound Z1642185485]
1% | Cc1nn(CC(C)C)c2sc(C(=O)N3c4ccccc4C[C@H]3C(N)=O)cc12 [Compound Z996487836]
51% | CCCn1c(NC(=O)c2ccc3c(c2)NC(=O)C(C)S3)nc2ccccc21 (stereo not shown) [Compound Z29076459]
-4% | COc1ccc(-c2cc(CSCC(=O)Nc3ccc4c(c3)CCC4)on2)cc1 [Compound Z317186982]
